{
  "source": "patent US9914910B2",
  "about": "“Methods of preserving and protecting pancreatic beta cells and treating or preventing diabetes by inhibiting NOX-1” (Eastern Virginia Medical School, priority 2013, dated 2018)",
  "key": {"[1]": {"tested_on": "primary human donor islets", "test": "Apoptosis by YO-PRO-1 fluorescence microscopy after PIC", "format": "cell-based", "conditions": "10 μM ML171", "description": "(§1) Human donor islets were obtained from integrated islet distribution project (http://iidp.coh.org) and cultured in CMRL media (Mediatech, Manassas, Va.). Mouse islets were freshly isolated from 8-week old male C57BL/6J mice (Jackson Laboratory, Bar Harbor, Me.) by common bile duct cannulation and collagenase digestion. Islets were hand picked prior to use.\n(§2) B. Fluorescence microscopy: Stimulated cells or islets were washed in cold PBS, and incubated for 30 mins at 40 C with cold PBS containing 1 μg/mL propidium iodide and 0.1 μM YO-PRO-1 (Life Technologies). For cell lines, five randomly fields per well were analyzed. For islets, all islets (>1000 um2 in size) were analyzed. Densitometric fluorescent value for YO-PRO-1 (green channel) was normalized to background and expressed proportional to cell occupied area (phase contrast). Images captured across three channels with Axiophot (Zeiss, Jena, Germany) with Axiovision (Zeiss) image analysis."}, "[2]": {"tested_on": "primary mouse islets", "test": "Glucose-stimulated insulin secretion (GSIS) after PIC", "format": "cell-based", "conditions": "10 μM ML171, 1 mM vs 16 mM glucose", "description": "as §1\nTreated islets or cells then were washed with PBS and placed in 1 mL serum-free Kreb-Ringer buffer (115 mM NaCl, 24 mM NaHCO3, 5 mM KCl, 1 mM MgCl2, and 25 mM HEPES) for 1 hour at 370 C. Low (1 mM) or high (16 mM) glucose was added for […] for 30 min. Insulin levels in media were measured by ELISA (Mercodia, Winston Salem, N.C.) as per the manufacturer's instructions."}, "[3]": {"molecular_target": "T1, NOX-1 (Homo sapiens, UniProt Q9Y5S8)", "T1 sequence (Q9Y5S8 1-564)": "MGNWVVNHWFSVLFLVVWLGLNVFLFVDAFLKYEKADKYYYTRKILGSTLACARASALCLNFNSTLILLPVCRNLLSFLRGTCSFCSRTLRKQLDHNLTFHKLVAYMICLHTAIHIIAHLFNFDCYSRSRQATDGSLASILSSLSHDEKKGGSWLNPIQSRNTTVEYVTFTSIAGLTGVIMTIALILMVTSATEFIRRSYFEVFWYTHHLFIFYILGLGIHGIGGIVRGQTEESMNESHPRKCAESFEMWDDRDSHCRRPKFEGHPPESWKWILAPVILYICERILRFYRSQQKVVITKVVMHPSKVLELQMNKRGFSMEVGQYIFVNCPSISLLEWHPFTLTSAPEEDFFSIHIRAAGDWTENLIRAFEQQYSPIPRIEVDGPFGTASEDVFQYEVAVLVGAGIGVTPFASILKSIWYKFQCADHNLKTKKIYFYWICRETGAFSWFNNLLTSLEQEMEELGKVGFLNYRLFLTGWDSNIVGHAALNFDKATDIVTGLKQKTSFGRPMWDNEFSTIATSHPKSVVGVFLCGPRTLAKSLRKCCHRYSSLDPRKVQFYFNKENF", "T1 sequence (P13498 1-195 partner)": "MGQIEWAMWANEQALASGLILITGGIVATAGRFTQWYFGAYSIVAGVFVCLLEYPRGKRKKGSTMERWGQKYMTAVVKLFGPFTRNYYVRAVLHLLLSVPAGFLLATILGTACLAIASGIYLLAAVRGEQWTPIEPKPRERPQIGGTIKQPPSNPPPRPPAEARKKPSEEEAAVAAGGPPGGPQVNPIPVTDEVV", "conditions": "cited from earlier work"}, "[4]": {"tested_on": "NOX-1 protein in βTC-3 cells", "test": "NOX-1 protein expression (western blot)", "format": "cell-based", "conditions": "Mus musculus, 24 h; read-out: inhibition of PIC induction of NOX-1 protein", "description": "(§3) Cells were then lysed (1× PBS, 1% Triton X-100, 1 mM PMSF, 1 mM Halt Protease Inhibitor Cocktail (Pierce, Rockford, Ill.), 1 mM NaVO4), and incubated on ice for 20 min. Cleared (14,000 rpm, 15 min, 4° C.) lysate was collected. Proteins separated on 10% Tris-glycine gels (Life Technologies) were transferred onto PDVF (Immobilon-FL, Millipore, Billerca, Mass.). Membranes were blocked in TBS/0.05% Tween (Sigma) plus 5% non-fat milk (Bio-Rad) for 1 hr at room temperature before incubation overnight at 40 in primary antibody with gentle shaking. The membrane was washed between antibody cycles four times for 5 min each in TBS/Tween (0.05%). Primary antibodies: 1:250 Anti-NOX-1 or 1:1000 β-actin 1 (Abcam, Cambridge, Mass.).\n(§4) Signal detected with 1:2000 HRP-secondary antibody for 1 hour (GE Healthcare, Buckinghamshire, UK) SuperSignal Chemiluminescent Substrate (Thermo Scientific, Rockford, Ill.) on a ChemiDoc XRS System (Bio-Rad). Densitometry was determined using Image J (http://rsb-web.nih.gov/i/)."}, "[5]": {"tested_on": "NOX-1 protein in INS-1 cells", "test": "NOX-1 protein expression (western blot)", "format": "cell-based", "conditions": "Rattus norvegicus, INS1, 24 h; read-out: inhibition of PIC induction of NOX-1 protein", "description": "as §3, §4"}, "[6]": {"tested_on": "βTC-3 cells", "test": "Caspase-3 assay (pro-caspase-3 cleavage) after PIC", "format": "cell-based, mouse", "conditions": "βTC-3, PIC 4 hours, up to", "description": "(§5) A. Caspase-3 Assay: Pro-caspase-3 cleavage was measured using a caspase-3 Assay kit (BD Pharmigen, Franklin Lakes, N.J.) per the manufacturer's instructions; fluorescence being measured (SpectraMax, Molecular Devices, Sunnyvale, Calif.) at excitation 380 nm and emission 440 nm (INS-1) or 460 nm (βTC-3, mouse)."}, "[7]": {"tested_on": "βTC-3 cells", "test": "Apoptosis by YO-PRO-1 fluorescence microscopy after PIC", "format": "cell-based, mouse", "conditions": "βTC-3, PIC 24 hours, p<0.001", "description": "as §2"}, "[8]": {"tested_on": "primary mouse islets", "test": "Caspase-3 assay (pro-caspase-3 cleavage) after PIC", "format": "cell-based", "conditions": "4 hours, up to", "description": "as §1, §5"}, "[9]": {"tested_on": "NOX-1 gene expression in βTC-3 cells", "test": "PIC-induced NOX-1 gene expression (RT-PCR)", "format": "cell-based, mouse", "conditions": "βTC-3, PIC 24 hours", "description": "(§6) Total RNA was isolated using the RNeasy Mini Kit (Qiagen, Valencia, Calif.) and cDNA prepared using MMLV reverse transcriptase (Life Technologies) and random hexamers (Life Technologies). Jump Start Taq polymerase (Life Technologies) was used in PCR reactions. […] RT-PCR reactions were performed in triplicate (CFX96 Bio-Rad, Hercules, Calif.). Taqman primers (Life Technologies) were also used. Data was normalized to the housekeeping gene GAPDH and analyzed using the 2-ΔΔCT method."}, "[10]": {"tested_on": "NOX-1 gene expression in INS-1 cells", "test": "PIC-induced NOX-1 gene expression (RT-PCR)", "format": "cell-based, rat", "conditions": "INS-1, PIC 24 hours", "description": "as §6"}},
  "data": [
    {"smiles": "CC(=O)c1ccc2c(c1)Nc1ccccc1S2", "note": "[ML171, 2-acetylphenothiazine]", "values": [
      {"measurement": "reduction of beta-cell apoptosis induced by PICs", "setting": "[1]", "value": "30%±3%"},
      {"measurement": "glucose stimulated insulin response with PIC", "setting": "[2]", "value": "partially restored"},
      {"measurement": "inhibition of NOX-1 (in words)", "setting": "[3]", "value": "nanomolar inhibitor"},
      {"measurement": "specificity for NOX-1 inhibition over NOX-2 inhibition and other NOX isoforms", "setting": "[3]", "value": "greater than 30 fold"},
      {"measurement": "inhibition at 1 µM", "setting": "[4]", "value": 100, "unit": "%"},
      {"measurement": "inhibition at 1 µM", "setting": "[5]", "value": 100, "unit": "%"},
      {"measurement": "block of PIC-induced activation of caspase-3", "setting": "[6]", "value": "≤ 97%±3.1%"},
      {"measurement": "PIC-induced apoptosis (YO-PRO-1)", "setting": "[7]", "value": "apoptosis was significantly decreased"},
      {"measurement": "block of PIC-induced activation of caspase-3", "setting": "[8]; 1 μM", "value": "up to 100%±7%"},
      {"measurement": "block of PIC-induced activation of caspase-3", "setting": "[8]; 10 μM", "value": "≤ 100%±3%"},
      {"measurement": "inhibition of PIC-induced expression of NOX-1 gene", "setting": "[9]", "value": 23, "unit": "%"},
      {"measurement": "inhibition of PIC-induced expression of NOX-1 gene", "setting": "[10]", "value": 33, "unit": "%"}
    ]}
  ]
}
